For eight molecules, GI50 and TGI results are on record in PubChem BioAssay (NCI).

Common to all, as to assay: DTP human tumour cell line panel, 48 h
The subject of assay [1] is COLO 205 colon.
The subject of assay [2] is HCC-2998 colon.
Assay [3] deals with K-562 leukemia.
In assay [4] the test system is NCI-H522 lung.
Assay [5] has as its system SF-539 CNS.
For assay [6], the system named is SK-MEL-2 melanoma.
The test system of assay [7] is SN12C renal.
Assay [8] has as its system SNB-19 CNS.
Assay [9] has as its system SNB-75 CNS.
The test system of assay [10] is T-47D breast.

Structures are written as SMILES. “And” between values parts separate entries of the source, which are not always exact repeats. Identical values can stand only once.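 Where inhibition never reached the appropriate level, the endpoint shown equals the highest concentration tested. Otherwise, values were interpolated linearly from a five-concentration, 48-hour dose response in 96-well plates. GI50 is the concentration that inhibits growth by half. TGI: concentration producing complete growth inhibition.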 Where only a bound is given, the exact number is not on record here.

A word on the GI50: it is the concentration at which growth is held to half of that of the control. As a reminder, the TGI is the concentration giving total growth inhibition. A high value points to lower sensitivity of the cells. Turning to `NC(=O)c1nnn(Cc2cc(Cl)c(C(=O)c3ccc(Cl)cc3)c(Cl)c2)c1N`, the GI50 was more than 9.09 µM in assay [1]; 6.15 µM in assay [2]; 2.19 µM in assay [3]; more than 9.09 µM in assay [4]; more than 9.09 µM in assay [5]; more than 9.09 µM in assay [6]. For the same molecule, the GI50 in [7], in assay [8] and in assay [9] was more than 9.09 µM each time. Besides, the TGI in assay [1] was > 9.09 µM and 48 µM; in [2], > 9.09 µM and 17.9 µM; in assay [3] it was more than 70.2 µM; in assay [4], > 9.09 µM and 38.8 µM; in assay [5] it was > 9.09 µM and 46.5 µM; in [6] it was more than 44 µM. The TGI in [7] is > 9.09 µM and 46.8 µM; in assay [8] it was > 9.09 µM and 30.5 µM; in assay [9], > 9.09 µM and 48 µM; in [10], more than 51.6 µM.

`CC(C)(C)C(=O)OCOP(=O)(OCOC(=O)C(C)(C)C)C1CCCN(OC(=O)c2ccccc2)C1=O` (centres undefined): the GI50 is 2.39 µM in assay [1]; 0.99 µM in assay [2]; 0.496 µM in assay [3]; 0.338 µM in [4]; 3.72 µM in [5]; 1.99 µM in [6]. Further, the GI50 in [7] was 0.337 µM; in assay [8], 1.51 µM; in [9] it was 5.1 µM; in assay [10], 1.38 µM. Besides, the TGI in assay [1] is 15.2 µM; in [2], 5.86 µM; in assay [3], more than 100 µM; in assay [4], 1.5 µM; in [5], 18.9 µM; in assay [6], 11.4 µM. The TGI in [7] is 7.19 µM; in assay [8] it was 17 µM; in assay [9] it was 93.1 µM; in assay [10] it was 16.7 µM.

On to `O=C(c1ccccn1)c1nnn2ccccc12`, for which the TGI in assay [1], in assay [2], in [3], in [4], in [5] and in [6] was more than 100 µM in each case. In addition, the TGI in assay [7], in assay [8], in assay [9] and in assay [10] was more than 100 µM in each case.

For `CC(C)c1ccc2c(N=Nc3ccc(S(N)(=O)=O)cc3)c(O)[nH]c2c1`, the GI50 in assay [1] was more than 25 µM; in [2] it was more than 21.1 µM; in assay [3], more than 25 µM; in assay [4], 7.08 µM; in assay [5], 5.56 µM; in [6] it was more than 13.1 µM. The GI50 in [7] was more than 14.8 µM; in assay [8] it was more than 14.5 µM; in assay [9], 4.72 µM; in assay [10], more than 15.3 µM. The TGI in assay [1] is more than 25 µM; in [2] it was more than 25 µM; in assay [3] it was more than 25 µM; in [4] it was more than 17.8 µM; in assay [5], more than 25 µM; in assay [6], more than 21.6 µM. Besides, the TGI in [7] is more than 25 µM; in [8] it was more than 25 µM; in assay [9], 10.3 µM; in assay [10], more than 25 µM.

Take `COc1ccc(/C=C2\N=C(c3ccccc3)N(c3cc(C(F)(F)F)ccc3Cl)C2=O)cc1OC`: the GI50 in [1] was 74 µM; in assay [2] it was 65 µM; in [3], 31.2 µM; in assay [4], 31.8 µM; in assay [5], 24.2 µM; in assay [6], 31.9 µM. The GI50 in assay [7] is 65.7 µM; in [8], 46.4 µM; in assay [9], 56.7 µM; in assay [10], more than 100 µM. In addition, the TGI was more than 100 µM in [1]; more than 100 µM in assay [2]; 87.6 µM in assay [3]; more than 100 µM in assay [4]; 57 µM in [5]; 82.1 µM in [6]. Further, the TGI in assay [7], in assay [8], in assay [9] and in assay [10] was more than 100 µM throughout.

Turning to `CCOCCc1c(O)nc(SC)[nH]c1=O`, the GI50 in [1], in assay [2], in assay [3], in [4], in [5] and in [6] was more than 100 µM in each case. Moreover, the GI50 in assay [7], in [8], in assay [9] and in assay [10] was more than 100 µM in each case. Besides, the TGI in assay [1], in assay [2], in [3], in assay [4], in [5] and in [6] was more than 100 µM throughout. For the same molecule, the TGI in assay [7], in assay [8], in assay [9] and in assay [10] was more than 100 µM each time.

As for `O=C(/C=C/C=C/c1ccccc1)c1ccc(Nc2nc(Nc3ccccc3)nc(Nc3ccccc3)n2)cc1`, the GI50 is 2.16 µM in assay [1]; more than 100 µM in [2]; 7.73 µM in assay [3]; more than 100 µM in [4]; 61.6 µM in assay [5]; more than 100 µM in [6]. Moreover, the GI50 in assay [7] is more than 100 µM; in [8], more than 100 µM; in assay [9], 17.8 µM; in assay [10], 4.58 µM. Also, the TGI in assay [1] is more than 100 µM; in assay [2], more than 100 µM; in [3], 37.2 µM; in assay [4] it was more than 100 µM; in assay [5], more than 100 µM; in assay [6] it was more than 100 µM. In addition, the TGI in assay [7], in [8], in [9] and in assay [10] was more than 100 µM in each case.

With `O=C(N/N=C/c1coc2ccc(Cl)cc2c1=O)c1ccncc1`, the GI50 was more than 100 µM in [1]; 30.3 µM in assay [2]; 9.49 µM in assay [3]; 58.2 µM in assay [4]; 75.9 µM in [5]; 74.3 µM in [6]. Moreover, the GI50 was 43.2 µM in [7], more than 100 µM in [8], 49.4 µM in assay [9] and more than 100 µM in assay [10]. Moreover, the TGI was more than 100 µM in assay [1]; 72.3 µM in assay [2]; 66.9 µM in assay [3]; more than 100 µM in assay [4]; more than 100 µM in assay [5]; more than 100 µM in assay [6]. Moreover, the TGI in [7], in assay [8], in assay [9] and in assay [10] was more than 100 µM each time.
